The values below come from PubChem BioAssay (NCI).

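The compound was tested at five concentrations on cells cultured in 96-well plates, with a 48-hour exposure period. TGI denotes the concentration required for complete inhibition of growth.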

The first experiment concerns OVCAR-3 ovarian. The experiment is described as follows: NCI tumour cell line growth inhibition, 48 h.
`CCOC(=O)N/N=C(/OCC)c1ccccc1` yielded a TGI above 100 µM.
`COc1cccc(-c2c(C#N)c(N)nc3c2CCS(=O)(=O)c2ccc(C)cc2-3)c1` came in with a TGI above 100 µM.
With `O=C1C(Cl)=C(OCCCCl)C(=O)c2c(O)ccc(O)c21`, the TGI stood at 6.77 µM.
For `CCN(CC)CCCNc1nc(=O)[nH]c(C)c1C(=O)Nc1cccc2cc3ccccc3cc12`, the TGI is above 100 µM.
`COC12OC3(C4OC41)C(C(=O)O[C@H]3CO[Si](C)(C)C(C)(C)C)C2C(=O)Oc1ccccc1` (some centres undefined): the TGI was above 100 µM.
With `c1ccc([P+](Cc2ccc(C[P+](c3ccccc3)(c3ccccc3)c3ccccc3)cc2)(c2ccccc2)c2ccccc2)cc1`, the TGI was above 100 µM.
In turn, `O=C(Cc1ccccc1)NNc1nc(NNC(=O)c2ccncc2)nc(Nc2ccc([N+](=O)[O-])cc2)n1` yielded a TGI above 10 µM.
`CC(=O)CCCCC(=O)Nc1ccc(CC(NC(=O)OC(C)(C)C)C(=O)NCC(=O)OCc2ccccc2)cc1` (centres undefined) showed a TGI of 27.9 µM.
Still for that read-out and setting: in the case of `C=CCOc1ccc(/C(N=Nc2ccc(Cl)cc2)=N/NC(=O)c2ccccc2)cc1OC` it was above 100 µM; in that of `N#CC12C(=O)N3C(=NC(c4ccccc4)NC3c3ccccc3)C1(C#N)C(c1ccccc1)NC1=C2CCC1` (centres undefined), above 100 µM.
With `O=C(/C=C/c1ccccc1)CCN1CCN(CCC(=O)/C=C/c2ccccc2)CC1`, the TGI was determined as 30.7 µM.
Turning to `C[n+]1c2ccccc2c(C(=O)Nc2ccc(S(=O)(=O)Nc3ccnn3-c3ccccc3)cc2)c2ccccc21`, the TGI is above 100 µM.
`N=c1oc2c(Cl)cc(Cl)cc2cc1C(=O)Nc1cccc2ccccc12` came in with a TGI above 40 µM.

The test system of the next experiment is OVCAR-4 ovarian. The experiment is described as follows: NCI tumour cell line growth inhibition, 48 h.
With `O=C1c2c(ccc3c2CCCC3)CC12Cc1ccc3c(c1C2=O)CCCC3`, the TGI is above 100 µM.
Regarding `CCOC(=O)N/N=C(/OCC)c1ccccc1`, the TGI was above 100 µM.
Same read-out and setting: with `COc1cccc(-c2c(C#N)c(N)nc3c2CCS(=O)(=O)c2ccc(C)cc2-3)c1` the figure was above 100 µM; with `COC(=O)C(CC12CC3CC(CC(C3)C1)C2)NC(=O)C(N)CC(=O)O` (centres undefined), above 100 µM.
The molecule `O=C1C(Cl)=C(OCCCCl)C(=O)c2c(O)ccc(O)c21` yielded a TGI of 7.14 µM.
The molecule `CCN(CC)CCCNc1nc(=O)[nH]c(C)c1C(=O)Nc1cccc2cc3ccccc3cc12` returned a TGI above 100 µM.
Still for that read-out and setting: with `COC12OC3(C4OC41)C(C(=O)O[C@H]3CO[Si](C)(C)C(C)(C)C)C2C(=O)Oc1ccccc1` (some centres undefined) the figure was above 100 µM; with `c1ccc([P+](Cc2ccc(C[P+](c3ccccc3)(c3ccccc3)c3ccccc3)cc2)(c2ccccc2)c2ccccc2)cc1`, above 100 µM.
For `O=C(Cc1ccccc1)NNc1nc(NNC(=O)c2ccncc2)nc(Nc2ccc([N+](=O)[O-])cc2)n1`, the TGI was above 10 µM.
On the same count and under the same terms, in the case of `CC(=O)CCCCC(=O)Nc1ccc(CC(NC(=O)OC(C)(C)C)C(=O)NCC(=O)OCc2ccccc2)cc1` (centres undefined) it was 27.6 µM; in that of `C=CCOc1ccc(/C(N=Nc2ccc(Cl)cc2)=N/NC(=O)c2ccccc2)cc1OC`, above 100 µM.
As for `N#CC12C(=O)N3C(=NC(c4ccccc4)NC3c3ccccc3)C1(C#N)C(c1ccccc1)NC1=C2CCC1` (centres undefined), the TGI is above 100 µM.
Regarding `O=C(/C=C/c1ccccc1)CCN1CCN(CCC(=O)/C=C/c2ccccc2)CC1`, the TGI worked out at 39.3 µM.
As for `C[n+]1c2ccccc2c(C(=O)Nc2ccc(S(=O)(=O)Nc3ccnn3-c3ccccc3)cc2)c2ccccc21`, the TGI is above 100 µM.
`N=c1oc2c(Cl)cc(Cl)cc2cc1C(=O)Nc1cccc2ccccc12` came in with a TGI of 6.37 µM.

The next experiment deals with PC-3 prostate. The experiment is described as follows: NCI tumour cell line growth inhibition, 48 h.
Molecule `S=c1sc2c(s1)SCCCCSCCCCSc1sc(=S)sc1SCCCCSCCCCS2` showed a TGI above 100 µM.
`O=C1c2c(ccc3c2CCCC3)CC12Cc1ccc3c(c1C2=O)CCCC3`: the TGI is above 100 µM.
As to `COc1cccc(-c2c(C#N)c(N)nc3c2CCS(=O)(=O)c2ccc(C)cc2-3)c1`, the TGI is above 100 µM.
`COC(=O)C(CC12CC3CC(CC(C3)C1)C2)NC(=O)C(N)CC(=O)O` (centres undefined) had a TGI above 100 µM.
On the same count and under the same terms, in the case of `O=C1C(Cl)=C(OCCCCl)C(=O)c2c(O)ccc(O)c21` it was 12.7 µM; in that of `CCN(CC)CCCNc1nc(=O)[nH]c(C)c1C(=O)Nc1cccc2cc3ccccc3cc12`, above 100 µM.
In the case of `COC12OC3(C4OC41)C(C(=O)O[C@H]3CO[Si](C)(C)C(C)(C)C)C2C(=O)Oc1ccccc1` (some centres undefined), the TGI is above 100 µM.
`c1ccc([P+](Cc2ccc(C[P+](c3ccccc3)(c3ccccc3)c3ccccc3)cc2)(c2ccccc2)c2ccccc2)cc1` yielded a TGI above 100 µM.
Regarding `O=C(Cc1ccccc1)NNc1nc(NNC(=O)c2ccncc2)nc(Nc2ccc([N+](=O)[O-])cc2)n1`, the TGI was above 10 µM.
In turn, `CC(=O)CCCCC(=O)Nc1ccc(CC(NC(=O)OC(C)(C)C)C(=O)NCC(=O)OCc2ccccc2)cc1` (centres undefined) yielded a TGI of 27.5 µM.
With `C=CCOc1ccc(/C(N=Nc2ccc(Cl)cc2)=N/NC(=O)c2ccccc2)cc1OC`, the TGI is above 100 µM.
`N#CC12C(=O)N3C(=NC(c4ccccc4)NC3c3ccccc3)C1(C#N)C(c1ccccc1)NC1=C2CCC1` (centres undefined) came in with a TGI above 100 µM.
`O=C(/C=C/c1ccccc1)CCN1CCN(CCC(=O)/C=C/c2ccccc2)CC1`: the TGI came out at 34 µM.
The molecule `C[n+]1c2ccccc2c(C(=O)Nc2ccc(S(=O)(=O)Nc3ccnn3-c3ccccc3)cc2)c2ccccc21` registered a TGI above 100 µM.
On the same count and under the same terms, in the case of `N=c1oc2c(Cl)cc(Cl)cc2cc1C(=O)Nc1cccc2ccccc12` it was above 100 µM.

A further experiment has as its system RXF 393 renal. As to the kind of experiment: NCI tumour cell line growth inhibition, 48 h.
For the molecule `O=C1c2c(ccc3c2CCCC3)CC12Cc1ccc3c(c1C2=O)CCCC3`, the TGI is above 100 µM.
For the molecule `CCOC(=O)N/N=C(/OCC)c1ccccc1`, the TGI was above 100 µM.
In turn, `COC(=O)C(CC12CC3CC(CC(C3)C1)C2)NC(=O)C(N)CC(=O)O` (centres undefined) registered a TGI above 100 µM.
`O=C1C(Cl)=C(OCCCCl)C(=O)c2c(O)ccc(O)c21` displayed a TGI of 4.38 µM.
`CCN(CC)CCCNc1nc(=O)[nH]c(C)c1C(=O)Nc1cccc2cc3ccccc3cc12` registered a TGI above 100 µM.
Same read-out and setting: with `c1ccc([P+](Cc2ccc(C[P+](c3ccccc3)(c3ccccc3)c3ccccc3)cc2)(c2ccccc2)c2ccccc2)cc1` the figure was above 100 µM.
Molecule `CC(=O)CCCCC(=O)Nc1ccc(CC(NC(=O)OC(C)(C)C)C(=O)NCC(=O)OCc2ccccc2)cc1` (centres undefined) showed a TGI of 54.5 µM.
Consider `N#CC12C(=O)N3C(=NC(c4ccccc4)NC3c3ccccc3)C1(C#N)C(c1ccccc1)NC1=C2CCC1` (centres undefined), for which the TGI was above 100 µM.
The same measure, in the same setting: in the case of `O=C(/C=C/c1ccccc1)CCN1CCN(CCC(=O)/C=C/c2ccccc2)CC1` it was 28.8 µM; in that of `N=c1oc2c(Cl)cc(Cl)cc2cc1C(=O)Nc1cccc2ccccc12`, 76.8 µM.

The subject of the next experiment is SK-MEL-2 melanoma. The experiment is described as follows: NCI tumour cell line growth inhibition, 48 h.
`S=c1sc2c(s1)SCCCCSCCCCSc1sc(=S)sc1SCCCCSCCCCS2` showed a TGI above 100 µM.
Still for that read-out and setting: with `O=C1c2c(ccc3c2CCCC3)CC12Cc1ccc3c(c1C2=O)CCCC3` the figure was above 100 µM.
For the molecule `CCOC(=O)N/N=C(/OCC)c1ccccc1`, the TGI was above 100 µM.
On the same count and under the same terms, in the case of `COc1cccc(-c2c(C#N)c(N)nc3c2CCS(=O)(=O)c2ccc(C)cc2-3)c1` it was above 100 µM; in that of `COC(=O)C(CC12CC3CC(CC(C3)C1)C2)NC(=O)C(N)CC(=O)O` (centres undefined), above 100 µM.
As for `CCN(CC)CCCNc1nc(=O)[nH]c(C)c1C(=O)Nc1cccc2cc3ccccc3cc12`, the TGI is above 100 µM.
Molecule `COC12OC3(C4OC41)C(C(=O)O[C@H]3CO[Si](C)(C)C(C)(C)C)C2C(=O)Oc1ccccc1` (some centres undefined) came in with a TGI above 100 µM.
As for `C=CCOc1ccc(/C(N=Nc2ccc(Cl)cc2)=N/NC(=O)c2ccccc2)cc1OC`, the TGI was above 100 µM.
For the molecule `N#CC12C(=O)N3C(=NC(c4ccccc4)NC3c3ccccc3)C1(C#N)C(c1ccccc1)NC1=C2CCC1` (centres undefined), the TGI was above 100 µM.
As for `O=C(/C=C/c1ccccc1)CCN1CCN(CCC(=O)/C=C/c2ccccc2)CC1`, the TGI was 37.5 µM.
The same measure, in the same setting: with `C[n+]1c2ccccc2c(C(=O)Nc2ccc(S(=O)(=O)Nc3ccnn3-c3ccccc3)cc2)c2ccccc21` the figure was above 100 µM.

Another experiment has as its system SK-OV-3 ovarian. As to the kind of experiment: NCI tumour cell line growth inhibition, 48 h.
The molecule `S=c1sc2c(s1)SCCCCSCCCCSc1sc(=S)sc1SCCCCSCCCCS2` showed a TGI above 100 µM.
As to `O=C1c2c(ccc3c2CCCC3)CC12Cc1ccc3c(c1C2=O)CCCC3`, the TGI is above 100 µM.
`CCOC(=O)N/N=C(/OCC)c1ccccc1` registered a TGI above 100 µM.
For `COC(=O)C(CC12CC3CC(CC(C3)C1)C2)NC(=O)C(N)CC(=O)O` (centres undefined), the TGI was above 100 µM.
Molecule `O=C1C(Cl)=C(OCCCCl)C(=O)c2c(O)ccc(O)c21` came in with a TGI of 35.9 µM.
